# Patent US20030144308A1, “Fructose 1,6-bisphosphatase inhibitors” (priority 2001, published 2003)
# Assays:
# [1] = biological target: recombinant human F16BPase (Homo sapiens, UniProt P09467); conditions: read-out: IC50 against the human enzyme; allosteric inhibitor; 40 minutes at room temperature without preincubation of compound with enzyme
# Protocol: Fructose-1,6-bisphosphatase Enzyme Assay: Fructose-1,6-bisphosphatase (F16BP) is assayed by measuring its ability to hydrolyze inorganic phosphate from fructose-1,6-bisphosphate using a modification of a reported method (Biochem. J. 1994, 298, 395). […] The final solution consists of 50 mM HEPES (catalog #H7523, Sigma Chemical Company, PO Box 14508, St. Louis, Mo. 63178) pH=7.2, 100 mM KCl (Sigma catalog #P3911), 2 mM MgCI2 (Sigma catalog #M9272), 2 mM EGTA (Sigma catalog #E0396), 1 mM DTT (Sigma atalog #D5545), and 500 1 μM fructose-1,6-bisphosphate (Sigma catalog #752-1). The solution is incubated for 40 minutes at room temperature without preincubation of compound with enzyme. The phosphate released by the enzyme is measured spectrophotometrically using a Titertek Multiscann MCC 340 (Titertek, 330 Wynn Drive, Huntsville, Ala. 35805) at 620 nm, after allowing the phosphate to form a complex for 10 minutes after the addition of 150 μL of ammonium molybdate/malachite green (AM/MG) solution. To prepare the AM/MG solution, one volume of 4.2% ammonium molybdate (w/v, Sigma catalog #A7302) in 4 molar aqueous hydrochloric acid is added to three volumes of 0.045% malachite green (w/v, Sigma catalog #M9636) and 0.01% Tween®-20 (v/v, Sigma catalog #P1379) in water. […]
# [2] = system: another carcinoma which does not express the EGF receptor; conditions: mouse, in vivo; cited from earlier work
# [3] = system: transplanted human mammary carcinoma which expresses epidermal growth factor receptor tyrosine kinase (EGFR); conditions: athymic nude mice; cited from earlier work
# Sequence of recombinant human F16BPase (P09467 whole entry): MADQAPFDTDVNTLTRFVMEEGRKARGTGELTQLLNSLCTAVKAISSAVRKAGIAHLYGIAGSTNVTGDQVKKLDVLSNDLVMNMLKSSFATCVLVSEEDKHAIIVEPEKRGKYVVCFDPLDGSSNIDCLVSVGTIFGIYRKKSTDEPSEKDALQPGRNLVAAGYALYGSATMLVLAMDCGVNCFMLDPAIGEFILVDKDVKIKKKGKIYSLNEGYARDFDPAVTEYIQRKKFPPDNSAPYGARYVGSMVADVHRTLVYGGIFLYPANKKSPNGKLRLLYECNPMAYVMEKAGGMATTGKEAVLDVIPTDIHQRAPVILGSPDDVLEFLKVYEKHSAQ
structure (smiles),measurement,setting,value
"Nc1ncnc2c1ncn2[C@@H]1O[C@H](COP(=O)(O)O)[C@@H](O)[C@H]1O [AMP, adenosine 5′-monophosphate]",IC50,[1],800 nM
CCOc1cc2nc(CCl)nc(Nc3cccc(-c4csc(C)n4)c3)c2cc1OCC.Cl,melting point,,252 to 256 °C
O=CN/C=C/c1cc(O)ccc1O [erbstatin],growth of carcinoma which does not express the EGF receptor,[2],without effect on the growth
same,growth of transplanted human mammary carcinoma expressing EGFR,[3],selectively attenuates the growth
